# Laboratory results: patent US11214594B2, “Antimicrobial peptide having synergistic antibacterial effect with antibiotics on multidrug resistant bacteria, and use thereof” (priority 2016, dated 2022)
# Like-named read-outs stand apart in the source and are kept apart here. Where a SMILES comes first, the peptide text is derived from it.
# Key:
# MDRPA 2002 = assay type: cell-based, Pseudomonas aeruginosa
# Summary of the method: (§1)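 Each strain is brought to 2×10^6 CFU in nutrient-sufficient Mueller-Hinton medium and dispensed into wells. Peptide solutions, stepwise diluted 2:1 in the same medium, are then added. The minimal concentration preventing growth gives the MIC.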
# MDRPA 2003 = assay type: cell-based, Pseudomonas aeruginosa
# Summary of the method: as §1
# A. baumannii [1] = experiment: microbe, parasite or virus in culture; assay type: cell-based, Acinetobacter baumannii
# Summary of the method: as §1
# MDRAB 12035 [2] = experiment: microbe, parasite or virus in culture; assay type: cell-based, Acinetobacter baumannii
# Summary of the method: as §1
# B. subtilis = experiment: microbe, parasite or virus in culture; assay type: cell-based, Bacillus subtilis
# Summary of the method: as §1
# A. baumannii [3] = experiment: MIC of antibiotic during combined treatment with antimicrobial peptide; assay type: cell-based, Acinetobacter baumannii; settings: for Antibiotic MIC, Erythromycin / Antibiotic MIC, Linezolid / Antibiotic MIC, Vancomycin: A. baumannii
# Summary of the method: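 First, antibiotic solution is diluted with MH medium; next, the dilution is dispensed into wells containing peptide; finally, the orientation is swapped and MIC of each mixture determined.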
# MDRAB 12035 [4] = experiment: as above; assay type: cell-based, Acinetobacter baumannii
# Summary of the method: (§2)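 Broth microdilution in MH medium; strains were diluted to 2×10^6 CFU per ml before plating. Peptide was serially diluted stepwise at 2:1 starting from its MIC, and MH-diluted antibiotic was then added to determine MIC. The reversed arrangement was also tested.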
# E. coli = assay type: cell-based, Escherichia coli; settings: E. coli
# Summary of the method: as §2
# MDREC 1229 = assay type: cell-based, Escherichia coli
# Summary of the method: as §2
# [5] = tested on: multi-drug resistant bacteria; experiment: MIC, summary statements for multi-drug resistant bacteria; assay type: cell-based
# Summary of the method: as §1
# [6] = combined with peptide at 1 μg/ml
# [7] = combined with peptide at 2 μg/ml
# [8] = combined with peptide at 4 μg/ml
# [9] = combined with peptide at 6 μg/ml
# [10] = combined with peptide at 8 μg/ml
# [11] = combined with peptide at 16 μg/ml
# [12] = combined with peptide at 32 μg/ml
# [13] = combined with peptide at 64 μg/ml
# [14] = peptide treatment concentration 1 μg/ml
# [15] = peptide treatment concentration 2 μg/ml
# [16] = peptide treatment concentration 4 μg/ml
# [17] = peptide treatment concentration 6 μg/ml
# [18] = peptide treatment concentration 8 μg/ml
# [19] = peptide treatment concentration 16 μg/ml
# [20] = peptide treatment concentration 32 μg/ml
# [21] = peptide treatment concentration 64 μg/ml
compound,measurement,setting,value
"CC[C@H](C)[C@H](NC(=O)[C@H](CCCCN)NC(=O)[C@H](Cc1c[nH]c2ccccc12)NC(=O)[C@@H](N)CCCNC(=N)N)C(=O)N[C@@H](Cc1ccccc1)C(=O)N[C@@H](CCCCN)C(=O)N[C@@H](CCCCN)C(=O)N[C@H](C(=O)N1CCC[C@H]1C(=O)N[C@@H](CCCCN)C(=O)N[C@@H](Cc1ccccc1)C(=O)N[C@@H](CC(C)C)C(=O)N[C@@H](Cc1c[nH]cn1)C(=O)N[C@@H](CCC(=O)O)C(=O)N[C@@H](C)C(=O)N[C@@H](CCCCN)C(=O)N[C@@H](CCCCN)C(=O)N[C@@H](Cc1c[nH]c2ccccc12)C(N)=O)[C@@H](C)CC [PapMA-14, RWK IFK KIP KFL HEA KKW-NH2] (H-RWKIFKKIPKFLHEAKKW-NH2; N-terminus assumed)",Minimal inhibitory concentration MIC,MDRPA 2002,64 µg/mL
same,Minimal inhibitory concentration MIC,MDRPA 2003,64 µg/mL
same,Minimal inhibitory concentration MIC,A. baumannii [1],16 µg/mL
same,"Peptide MIC, peptide alone",A. baumannii [1],16 µg/mL
same,Antibacterial activity relative to PapMA-1,A. baumannii [1]; A. baumannii and S. typhimurium,at least twice as high
same,Minimal inhibitory concentration MIC,MDRAB 12035 [2],16 µg/mL
same,"Peptide MIC, peptide alone",MDRAB 12035 [2],16 µg/mL
same,Minimal inhibitory concentration MIC,B. subtilis,>128 µg/mL
same,Synergistic effect of antibacterial activity with existing antibiotics compared with PapMA-1,A. baumannii [3]; A. baumannii and MDRAB 12035,higher level than the PapMA-1 peptide
same,"Antibiotic MIC, Erythromycin",A. baumannii [3]; [6],16 µg/mL
same,"Antibiotic MIC, Linezolid",A. baumannii [3]; [6],128 µg/mL
same,"Antibiotic MIC, Vancomycin",A. baumannii [3]; [6],>128 µg/mL
same,"Antibiotic MIC, Erythromycin",A. baumannii [3]; [7],8 µg/mL
same,"Antibiotic MIC, Linezolid",A. baumannii [3]; [7],32 µg/mL
same,"Antibiotic MIC, Vancomycin",A. baumannii [3]; [7],64 µg/mL
same,"Antibiotic MIC, Erythromycin",A. baumannii [3]; [8],2 µg/mL
same,"Antibiotic MIC, Linezolid",A. baumannii [3]; [8],8 µg/mL
same,"Antibiotic MIC, Vancomycin",A. baumannii [3]; [8],8 µg/mL
same,"Antibiotic MIC, Erythromycin",A. baumannii [3]; [9],0.5 µg/mL
same,"Antibiotic MIC, Linezolid",A. baumannii [3]; [9],1 µg/mL
same,"Antibiotic MIC, Vancomycin",A. baumannii [3]; [9],2 µg/mL
same,"Antibiotic MIC, Erythromycin",A. baumannii [3]; [10],0.25 µg/mL
same,"Antibiotic MIC, Linezolid",A. baumannii [3]; [10],0.5 µg/mL
same,"Antibiotic MIC, Vancomycin",A. baumannii [3]; [10],1 µg/mL
same,"Antibiotic MIC, Erythromycin",A. baumannii [3]; [11],0 µg/mL
same,"Antibiotic MIC, Linezolid",A. baumannii [3]; [11],0 µg/mL
same,"Antibiotic MIC, Vancomycin",A. baumannii [3]; [11],0 µg/mL
same,"Antibiotic MIC, Erythromycin",A. baumannii [3]; [12],0 µg/mL
same,"Antibiotic MIC, Linezolid",A. baumannii [3]; [12],0 µg/mL
same,"Antibiotic MIC, Vancomycin",A. baumannii [3]; [12],0 µg/mL
same,"Antibiotic MIC, Erythromycin",A. baumannii [3]; [13],0 µg/mL
same,"Antibiotic MIC, Linezolid",A. baumannii [3]; [13],0 µg/mL
same,"Antibiotic MIC, Vancomycin",A. baumannii [3]; [13],0 µg/mL
same,Erythromycin MIC during combined treatment with peptide,MDRAB 12035 [4]; [14],16 µg/mL
same,Linezolid MIC during combined treatment with peptide,MDRAB 12035 [4]; [14],128 µg/mL
same,Vancomycin MIC during combined treatment with peptide,MDRAB 12035 [4]; [14],>128 µg/mL
same,Erythromycin MIC during combined treatment with peptide,MDRAB 12035 [4]; [15],8 µg/mL
same,Linezolid MIC during combined treatment with peptide,MDRAB 12035 [4]; [15],64 µg/mL
same,Vancomycin MIC during combined treatment with peptide,MDRAB 12035 [4]; [15],64 µg/mL
same,Erythromycin MIC during combined treatment with peptide,MDRAB 12035 [4]; [16],4 µg/mL
same,Linezolid MIC during combined treatment with peptide,MDRAB 12035 [4]; [16],16 µg/mL
same,Vancomycin MIC during combined treatment with peptide,MDRAB 12035 [4]; [16],16 µg/mL
same,Erythromycin MIC during combined treatment with peptide,MDRAB 12035 [4]; [17],1 µg/mL
same,Linezolid MIC during combined treatment with peptide,MDRAB 12035 [4]; [17],4 µg/mL
same,Vancomycin MIC during combined treatment with peptide,MDRAB 12035 [4]; [17],4 µg/mL
same,Erythromycin MIC during combined treatment with peptide,MDRAB 12035 [4]; [18],0.5 µg/mL
same,Linezolid MIC during combined treatment with peptide,MDRAB 12035 [4]; [18],1 µg/mL
same,Vancomycin MIC during combined treatment with peptide,MDRAB 12035 [4]; [18],1 µg/mL
same,Erythromycin MIC during combined treatment with peptide,MDRAB 12035 [4]; [19],0 µg/mL
same,Linezolid MIC during combined treatment with peptide,MDRAB 12035 [4]; [19],0 µg/mL
same,Vancomycin MIC during combined treatment with peptide,MDRAB 12035 [4]; [19],0 µg/mL
same,Erythromycin MIC during combined treatment with peptide,MDRAB 12035 [4]; [20],0 µg/mL
same,Linezolid MIC during combined treatment with peptide,MDRAB 12035 [4]; [20],0 µg/mL
same,Vancomycin MIC during combined treatment with peptide,MDRAB 12035 [4]; [20],0 µg/mL
same,Erythromycin MIC during combined treatment with peptide,MDRAB 12035 [4]; [21],0 µg/mL
same,Linezolid MIC during combined treatment with peptide,MDRAB 12035 [4]; [21],0 µg/mL
same,Vancomycin MIC during combined treatment with peptide,MDRAB 12035 [4]; [21],0 µg/mL
same,Peptide MIC,E. coli; with Erythromycin […] (Conc./MIC 1),0 µg/mL
same,Peptide MIC,E. coli; with Linezolid […] (Conc./MIC 1),0 µg/mL
same,Peptide MIC,E. coli; with Vancomycin 1024 μg/ml (Conc./MIC 1),0 µg/mL
same,Peptide MIC during treatment with antibiotic,MDREC 1229; erythromycin 32 μg/ml (Conc./MIC 1/8),2 µg/mL
same,Peptide MIC during treatment with antibiotic,MDREC 1229; erythromycin 64 μg/ml (Conc./MIC 1/4),2 µg/mL
same,Peptide MIC during treatment with antibiotic,MDREC 1229; erythromycin […] (Conc./MIC 1),0 µg/mL
same,Peptide MIC during treatment with antibiotic,MDREC 1229; erythromycin […] (Conc./MIC 1/2),1 µg/mL
same,Peptide MIC during treatment with antibiotic,MDREC 1229; linezolid 64 μg/ml (Conc./MIC 1/8),4 µg/mL
same,Peptide MIC during treatment with antibiotic,MDREC 1229; linezolid 512 μg/ml (Conc./MIC 1),0 µg/mL
same,Peptide MIC during treatment with antibiotic,MDREC 1229; linezolid […] (Conc./MIC 1/2),1 µg/mL
same,Peptide MIC during treatment with antibiotic,MDREC 1229; linezolid […] (Conc./MIC 1/4),2 µg/mL
same,Peptide MIC during treatment with antibiotic,MDREC 1229; vancomycin 512 μg/ml (Conc./MIC 1/2),2 µg/mL
same,Peptide MIC during treatment with antibiotic,MDREC 1229; vancomycin 1024 μg/ml (Conc./MIC 1),1 µg/mL
same,Peptide MIC during treatment with antibiotic,MDREC 1229; vancomycin […] (Conc./MIC 1/4),4 µg/mL
same,Peptide MIC during treatment with antibiotic,MDREC 1229; vancomycin […] (Conc./MIC 1/8),4 µg/mL
same,Antibacterial activity relative to PapMA-1,[5],twice to four times higher
